From the kinase profiling compilation of Christmann-Franck et al. (2016)

Assays:
Assay in all cases: KINOMEscan competition binding
Settings in all cases: compound 10.0 µM
INSR (human) = INSR (human) (UniProt P06213)
CDK18 (human) = CDK18 (human) (UniProt Q07002)
NUAK2 (human) = NUAK2 (human) (UniProt Q9H093)
STK33 (human) = STK33 (human) (UniProt Q9BYT3)
ADCK3 (human) = ADCK3 (human) (UniProt Q8NI60)
[1] = test system: EGFR (human), P00533 [752-759 del]
SYK (human) = SYK (human) (UniProt P43405)
MAP2K2 (human) = MAP2K2 (human) (UniProt P36507)
CDK11B (human) = CDK11B (human) (UniProt P21127)
ERBB4 (human) = ERBB4 (human) (UniProt Q15303)
RPS6KA5 KD1 (human) = RPS6KA5 KD1 (human) (UniProt O75582)
PLK1 (human) = PLK1 (human) (UniProt P53350)
MAPK6 (human) = MAPK6 (human) (UniProt Q16659)
RPS6KA2 KD1 (human) = RPS6KA2 KD1 (human) (UniProt Q15349)
PRKG1 (human) = PRKG1 (human) (UniProt Q13976)
CDK17 (human) = CDK17 (human) (UniProt Q00537)
MAPK1 (human) = MAPK1 (human) (UniProt P28482)
CDKL2 (human) = CDKL2 (human) (UniProt Q92772)
PRKD1 (human) = PRKD1 (human) (UniProt Q15139)
ERBB2 (human) = ERBB2 (human) (UniProt P04626)
EPHA3 (human) = EPHA3 (human) (UniProt P29320)
RET (human) = RET (human) (UniProt P07949)
DCLK1 (human) = DCLK1 (human) (UniProt O15075)
SRC (human) = SRC (human) (UniProt P12931)
MAPK9 (human) = MAPK9 (human) (UniProt P45984)
AAK1 (human) = AAK1 (human) (UniProt Q2M2I8)
[2] = test system: EGFR (human), P00533 [747-751 del / S ins]
CDK8 (human) = CDK8 (human) (UniProt P49336)
NEK6 (human) = NEK6 (human) (UniProt Q9HC98)
[3] = test system: RET (human), P07949 [M918T]
LYN (human) = LYN (human) (UniProt P07948)
TSSK1B (human) = TSSK1B (human) (UniProt Q9BXA7)
PAK7 (human) = PAK7 (human) (UniProt Q9P286)

Sequence of TSSK1B (human) (Q9BXA7 whole entry, looked up): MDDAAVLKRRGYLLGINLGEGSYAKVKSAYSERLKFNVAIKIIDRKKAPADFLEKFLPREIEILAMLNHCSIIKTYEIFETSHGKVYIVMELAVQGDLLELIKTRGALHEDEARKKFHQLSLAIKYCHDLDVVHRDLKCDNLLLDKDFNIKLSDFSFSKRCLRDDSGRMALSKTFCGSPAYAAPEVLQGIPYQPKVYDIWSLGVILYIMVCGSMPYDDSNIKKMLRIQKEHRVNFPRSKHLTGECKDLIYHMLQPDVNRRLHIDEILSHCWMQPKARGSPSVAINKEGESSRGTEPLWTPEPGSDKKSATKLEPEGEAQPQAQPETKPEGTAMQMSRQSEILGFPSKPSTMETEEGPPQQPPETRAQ
Sequence of PRKG1 (human) (Q13976 whole entry, looked up): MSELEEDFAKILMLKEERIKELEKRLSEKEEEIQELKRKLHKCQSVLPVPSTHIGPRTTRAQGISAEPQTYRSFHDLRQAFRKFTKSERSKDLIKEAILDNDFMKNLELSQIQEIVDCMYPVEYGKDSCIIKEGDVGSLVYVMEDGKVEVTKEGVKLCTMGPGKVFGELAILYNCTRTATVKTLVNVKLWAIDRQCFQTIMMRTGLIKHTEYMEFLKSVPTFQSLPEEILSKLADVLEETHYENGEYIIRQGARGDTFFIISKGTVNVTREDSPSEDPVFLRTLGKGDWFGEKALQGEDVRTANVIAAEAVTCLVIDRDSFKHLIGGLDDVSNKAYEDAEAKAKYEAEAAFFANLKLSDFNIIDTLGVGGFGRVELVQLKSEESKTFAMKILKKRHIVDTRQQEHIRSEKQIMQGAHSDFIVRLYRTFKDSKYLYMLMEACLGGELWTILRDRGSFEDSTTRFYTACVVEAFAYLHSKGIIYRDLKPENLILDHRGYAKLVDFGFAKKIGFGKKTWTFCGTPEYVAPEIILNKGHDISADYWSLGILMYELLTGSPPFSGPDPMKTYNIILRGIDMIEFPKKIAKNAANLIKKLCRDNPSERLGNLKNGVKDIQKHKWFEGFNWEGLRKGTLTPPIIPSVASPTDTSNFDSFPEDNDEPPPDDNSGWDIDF
Sequence of INSR (human) (P06213 whole entry, looked up): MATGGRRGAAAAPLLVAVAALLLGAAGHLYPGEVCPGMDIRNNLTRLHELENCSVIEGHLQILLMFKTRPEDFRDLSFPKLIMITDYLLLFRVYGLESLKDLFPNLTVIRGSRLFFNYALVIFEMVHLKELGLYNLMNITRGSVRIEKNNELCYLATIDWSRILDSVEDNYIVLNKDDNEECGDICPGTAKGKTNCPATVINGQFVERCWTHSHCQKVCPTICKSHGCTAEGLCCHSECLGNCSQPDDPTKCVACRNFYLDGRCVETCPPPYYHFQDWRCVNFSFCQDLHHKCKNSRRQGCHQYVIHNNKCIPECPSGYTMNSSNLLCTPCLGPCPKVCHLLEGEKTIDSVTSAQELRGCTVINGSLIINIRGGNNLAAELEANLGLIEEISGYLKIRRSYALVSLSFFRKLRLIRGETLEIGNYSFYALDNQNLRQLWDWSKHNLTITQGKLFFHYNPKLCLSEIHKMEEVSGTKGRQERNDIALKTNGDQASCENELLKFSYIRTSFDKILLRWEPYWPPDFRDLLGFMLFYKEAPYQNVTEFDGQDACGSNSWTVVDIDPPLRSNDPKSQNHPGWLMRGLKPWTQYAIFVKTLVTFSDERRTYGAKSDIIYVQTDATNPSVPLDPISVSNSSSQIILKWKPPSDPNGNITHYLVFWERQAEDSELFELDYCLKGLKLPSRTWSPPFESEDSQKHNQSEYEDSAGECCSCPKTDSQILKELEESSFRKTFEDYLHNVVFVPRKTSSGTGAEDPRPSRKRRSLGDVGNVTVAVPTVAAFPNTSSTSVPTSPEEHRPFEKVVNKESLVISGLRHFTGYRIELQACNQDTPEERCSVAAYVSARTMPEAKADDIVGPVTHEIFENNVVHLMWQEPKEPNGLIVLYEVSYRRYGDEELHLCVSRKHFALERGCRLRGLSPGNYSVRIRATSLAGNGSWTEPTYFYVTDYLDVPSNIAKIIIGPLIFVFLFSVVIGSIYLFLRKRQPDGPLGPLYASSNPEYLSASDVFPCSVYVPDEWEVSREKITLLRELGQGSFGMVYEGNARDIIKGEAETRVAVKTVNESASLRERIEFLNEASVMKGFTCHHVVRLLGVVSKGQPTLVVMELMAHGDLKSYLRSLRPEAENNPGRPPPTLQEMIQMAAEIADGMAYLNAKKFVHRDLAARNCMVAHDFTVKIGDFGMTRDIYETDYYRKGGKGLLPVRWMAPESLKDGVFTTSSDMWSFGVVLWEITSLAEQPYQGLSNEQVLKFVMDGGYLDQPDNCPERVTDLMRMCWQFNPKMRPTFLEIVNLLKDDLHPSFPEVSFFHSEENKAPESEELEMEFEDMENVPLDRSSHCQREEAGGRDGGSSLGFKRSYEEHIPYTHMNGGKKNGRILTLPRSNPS
Sequence of CDK18 (human) (Q07002 whole entry, looked up): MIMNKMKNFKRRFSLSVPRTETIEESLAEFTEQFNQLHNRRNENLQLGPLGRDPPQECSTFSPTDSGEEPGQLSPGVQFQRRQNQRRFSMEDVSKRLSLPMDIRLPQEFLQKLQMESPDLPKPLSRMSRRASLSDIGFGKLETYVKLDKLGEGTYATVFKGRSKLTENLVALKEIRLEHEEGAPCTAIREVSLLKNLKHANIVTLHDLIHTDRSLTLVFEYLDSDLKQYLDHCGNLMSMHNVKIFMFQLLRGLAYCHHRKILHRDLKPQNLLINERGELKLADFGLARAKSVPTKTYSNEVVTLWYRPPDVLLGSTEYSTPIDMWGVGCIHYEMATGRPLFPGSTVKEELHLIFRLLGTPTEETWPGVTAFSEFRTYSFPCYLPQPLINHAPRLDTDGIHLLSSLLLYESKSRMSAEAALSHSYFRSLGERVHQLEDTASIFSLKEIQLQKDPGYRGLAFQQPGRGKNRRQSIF
Sequence of MAPK6 (human) (Q16659 whole entry, looked up): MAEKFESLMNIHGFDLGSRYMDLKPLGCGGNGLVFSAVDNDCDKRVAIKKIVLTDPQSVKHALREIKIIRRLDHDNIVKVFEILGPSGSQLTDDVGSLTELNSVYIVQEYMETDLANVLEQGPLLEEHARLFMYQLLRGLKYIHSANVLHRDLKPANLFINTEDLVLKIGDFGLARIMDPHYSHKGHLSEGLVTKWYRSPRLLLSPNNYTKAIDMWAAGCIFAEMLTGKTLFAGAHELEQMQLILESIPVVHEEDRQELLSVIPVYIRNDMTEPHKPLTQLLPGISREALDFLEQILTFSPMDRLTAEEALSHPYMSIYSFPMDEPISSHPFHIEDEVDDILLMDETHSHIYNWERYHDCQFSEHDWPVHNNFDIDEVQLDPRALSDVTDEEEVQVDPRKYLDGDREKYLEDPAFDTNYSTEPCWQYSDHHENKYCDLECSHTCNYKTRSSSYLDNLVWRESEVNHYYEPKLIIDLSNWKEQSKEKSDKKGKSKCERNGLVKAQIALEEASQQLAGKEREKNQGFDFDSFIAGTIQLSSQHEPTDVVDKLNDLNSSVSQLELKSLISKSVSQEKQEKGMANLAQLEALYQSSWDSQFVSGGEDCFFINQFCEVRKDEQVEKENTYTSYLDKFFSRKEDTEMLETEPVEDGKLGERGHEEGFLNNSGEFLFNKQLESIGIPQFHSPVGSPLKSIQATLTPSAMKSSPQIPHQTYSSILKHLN
Sequence of AAK1 (human) (Q2M2I8 whole entry, looked up): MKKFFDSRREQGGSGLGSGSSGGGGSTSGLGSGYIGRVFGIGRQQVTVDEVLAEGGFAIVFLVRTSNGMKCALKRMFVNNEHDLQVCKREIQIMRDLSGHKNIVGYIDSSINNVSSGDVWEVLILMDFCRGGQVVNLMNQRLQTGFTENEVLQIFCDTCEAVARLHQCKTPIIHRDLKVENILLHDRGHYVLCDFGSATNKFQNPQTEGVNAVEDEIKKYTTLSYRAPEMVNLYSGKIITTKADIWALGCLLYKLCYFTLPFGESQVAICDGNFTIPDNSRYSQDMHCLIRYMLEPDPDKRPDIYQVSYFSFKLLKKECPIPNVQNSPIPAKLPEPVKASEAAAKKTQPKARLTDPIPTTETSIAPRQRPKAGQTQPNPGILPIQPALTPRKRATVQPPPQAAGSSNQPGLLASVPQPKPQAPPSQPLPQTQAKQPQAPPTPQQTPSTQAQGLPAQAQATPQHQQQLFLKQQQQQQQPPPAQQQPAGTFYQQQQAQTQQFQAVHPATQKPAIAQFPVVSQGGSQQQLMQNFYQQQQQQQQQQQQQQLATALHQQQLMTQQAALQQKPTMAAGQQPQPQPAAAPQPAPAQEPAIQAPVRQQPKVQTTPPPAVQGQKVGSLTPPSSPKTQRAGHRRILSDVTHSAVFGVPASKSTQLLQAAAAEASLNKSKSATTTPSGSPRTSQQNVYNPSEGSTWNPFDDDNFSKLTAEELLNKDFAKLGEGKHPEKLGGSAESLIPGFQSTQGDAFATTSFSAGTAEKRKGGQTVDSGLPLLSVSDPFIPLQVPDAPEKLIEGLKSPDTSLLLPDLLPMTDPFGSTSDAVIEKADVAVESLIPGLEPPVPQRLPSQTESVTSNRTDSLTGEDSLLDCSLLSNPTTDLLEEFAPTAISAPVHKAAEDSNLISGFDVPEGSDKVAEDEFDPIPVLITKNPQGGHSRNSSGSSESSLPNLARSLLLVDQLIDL
Sequence of MAPK1 (human) (P28482 whole entry, looked up): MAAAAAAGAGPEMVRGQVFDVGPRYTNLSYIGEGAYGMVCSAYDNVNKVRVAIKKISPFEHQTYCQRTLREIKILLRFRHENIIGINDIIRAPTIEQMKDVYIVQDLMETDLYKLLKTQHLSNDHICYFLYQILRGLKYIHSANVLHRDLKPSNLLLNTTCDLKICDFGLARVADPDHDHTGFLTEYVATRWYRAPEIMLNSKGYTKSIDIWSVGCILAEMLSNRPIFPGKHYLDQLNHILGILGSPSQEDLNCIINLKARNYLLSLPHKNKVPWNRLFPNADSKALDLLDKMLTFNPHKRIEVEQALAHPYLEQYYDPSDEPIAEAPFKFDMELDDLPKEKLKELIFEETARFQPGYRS

Compound: C=CC(=O)Nc1ccc(CN(C(=O)Nc2c(Cl)c(OC)cc(OC)c2Cl)c2cc(Nc3ccc(N4CCN(C)CC4)cc3)ncn2)cc1
- kinase still bound, per cent of control (INSR (human)): 24%
- kinase still bound, per cent of control (CDK18 (human)): 100%
- kinase still bound, per cent of control (NUAK2 (human)): 100%
- kinase still bound, per cent of control (STK33 (human)): 31%
- kinase still bound, per cent of control (ADCK3 (human)): 100%
- kinase still bound, per cent of control [1]: 2.3%
- kinase still bound, per cent of control (SYK (human)): 100%
- kinase still bound, per cent of control (MAP2K2 (human)): 100%
- kinase still bound, per cent of control (CDK11B (human)): 100%
- kinase still bound, per cent of control (ERBB4 (human)): 2.2%
- kinase still bound, per cent of control (RPS6KA5 KD1 (human)): 100%
- kinase still bound, per cent of control (PLK1 (human)): 100%
- kinase still bound, per cent of control (MAPK6 (human)): 100%
- kinase still bound, per cent of control (RPS6KA2 KD1 (human)): 100%
- kinase still bound, per cent of control (PRKG1 (human)): 100%
- kinase still bound, per cent of control (CDK17 (human)): 100%
- kinase still bound, per cent of control (MAPK1 (human)): 100%
- kinase still bound, per cent of control (CDKL2 (human)): 0.35%
- kinase still bound, per cent of control (PRKD1 (human)): 100%
- kinase still bound, per cent of control (ERBB2 (human)): 16%
- kinase still bound, per cent of control (EPHA3 (human)): 100%
- kinase still bound, per cent of control (RET (human)): 0.6%
- kinase still bound, per cent of control (DCLK1 (human)): 100%
- kinase still bound, per cent of control (SRC (human)): 6.6%
- kinase still bound, per cent of control (MAPK9 (human)): 100%
- kinase still bound, per cent of control (AAK1 (human)): 100%
- kinase still bound, per cent of control [2]: 0.65%
- kinase still bound, per cent of control (CDK8 (human)): 100%
- kinase still bound, per cent of control (NEK6 (human)): 100%
- kinase still bound, per cent of control [3]: 0.4%
- kinase still bound, per cent of control (LYN (human)): 5%
- kinase still bound, per cent of control (TSSK1B (human)): 100%
- kinase still bound, per cent of control (PAK7 (human)): 100%

Compound: Cc1n[nH]c2ccc(-c3cncc(OC[C@@H](N)Cc4c[nH]c5ccccc45)c3)cc12
- kinase still bound, per cent of control (INSR (human)): 100%
- kinase still bound, per cent of control (CDK18 (human)): 28%
- kinase still bound, per cent of control (NUAK2 (human)): 1.9%
- kinase still bound, per cent of control (STK33 (human)): 2.6%
- kinase still bound, per cent of control (ADCK3 (human)): 100%
- kinase still bound, per cent of control (SYK (human)): 100%
- kinase still bound, per cent of control (MAP2K2 (human)): 100%
- kinase still bound, per cent of control (CDK11B (human)): 100%
- kinase still bound, per cent of control (ERBB4 (human)): 100%
- kinase still bound, per cent of control (RPS6KA5 KD1 (human)): 11%
- kinase still bound, per cent of control (PLK1 (human)): 100%
- kinase still bound, per cent of control (MAPK6 (human)): 100%
- kinase still bound, per cent of control (RPS6KA2 KD1 (human)): 29%
- kinase still bound, per cent of control (PRKG1 (human)): 0.65%
- kinase still bound, per cent of control (CDK17 (human)): 25%
- kinase still bound, per cent of control (MAPK1 (human)): 100%
- kinase still bound, per cent of control (CDKL2 (human)): 5.2%
- kinase still bound, per cent of control (PRKD1 (human)): 2%
- kinase still bound, per cent of control (ERBB2 (human)): 100%
- kinase still bound, per cent of control (EPHA3 (human)): 100%
- kinase still bound, per cent of control (RET (human)): 100%
- kinase still bound, per cent of control (DCLK1 (human)): 100%
- kinase still bound, per cent of control (SRC (human)): 100%
- kinase still bound, per cent of control (MAPK9 (human)): 100%
- kinase still bound, per cent of control (AAK1 (human)): 1.8%
- kinase still bound, per cent of control (CDK8 (human)): 9.6%
- kinase still bound, per cent of control (NEK6 (human)): 100%
- kinase still bound, per cent of control [3]: 100%
- kinase still bound, per cent of control (LYN (human)): 100%
- kinase still bound, per cent of control (TSSK1B (human)): 100%
- kinase still bound, per cent of control (PAK7 (human)): 16%

Compound: CCN(CC)CCCCNc1ncc2cc(-c3cc(OC)cc(OC)c3)c(NC(=O)NC(C)(C)C)nc2n1
- kinase still bound, per cent of control (CDK18 (human)): 100%
- kinase still bound, per cent of control (NUAK2 (human)): 100%
- kinase still bound, per cent of control (STK33 (human)): 100%
- kinase still bound, per cent of control (ADCK3 (human)): 100%
- kinase still bound, per cent of control (SYK (human)): 100%
- kinase still bound, per cent of control (MAP2K2 (human)): 100%
- kinase still bound, per cent of control (CDK11B (human)): 100%
- kinase still bound, per cent of control (ERBB4 (human)): 100%
- kinase still bound, per cent of control (RPS6KA5 KD1 (human)): 100%
- kinase still bound, per cent of control (PLK1 (human)): 100%
- kinase still bound, per cent of control (MAPK6 (human)): 100%
- kinase still bound, per cent of control (RPS6KA2 KD1 (human)): 100%
- kinase still bound, per cent of control (PRKG1 (human)): 100%
- kinase still bound, per cent of control (CDK17 (human)): 100%
- kinase still bound, per cent of control (MAPK1 (human)): 100%
- kinase still bound, per cent of control (PRKD1 (human)): 100%
- kinase still bound, per cent of control (ERBB2 (human)): 100%
- kinase still bound, per cent of control (EPHA3 (human)): 100%
- kinase still bound, per cent of control (RET (human)): 26%
- kinase still bound, per cent of control (DCLK1 (human)): 100%
- kinase still bound, per cent of control (SRC (human)): 100%
- kinase still bound, per cent of control (MAPK9 (human)): 100%
- kinase still bound, per cent of control (AAK1 (human)): 100%
- kinase still bound, per cent of control (CDK8 (human)): 100%
- kinase still bound, per cent of control (NEK6 (human)): 100%
- kinase still bound, per cent of control [3]: 100%
- kinase still bound, per cent of control (LYN (human)): 100%
- kinase still bound, per cent of control (TSSK1B (human)): 100%
- kinase still bound, per cent of control (PAK7 (human)): 100%

Compound: CNC(=O)c1ccc(Nc2cc(Nc3ccccc3S(=O)(=O)C(C)C)c3cc[nH]c3n2)nc1
- kinase still bound, per cent of control (INSR (human)): 0.4%
- kinase still bound, per cent of control (CDK18 (human)): 100%
- kinase still bound, per cent of control (NUAK2 (human)): 0.4%
- kinase still bound, per cent of control (STK33 (human)): 1.4%
- kinase still bound, per cent of control (ADCK3 (human)): 100%
- kinase still bound, per cent of control [1]: 100%
- kinase still bound, per cent of control (SYK (human)): 2.6%
- kinase still bound, per cent of control (MAP2K2 (human)): 5.2%
- kinase still bound, per cent of control (CDK11B (human)): 100%
- kinase still bound, per cent of control (ERBB4 (human)): 100%
- kinase still bound, per cent of control (RPS6KA5 KD1 (human)): 100%
- kinase still bound, per cent of control (PLK1 (human)): 19%
- kinase still bound, per cent of control (MAPK6 (human)): 100%
- kinase still bound, per cent of control (RPS6KA2 KD1 (human)): 1.8%
- kinase still bound, per cent of control (PRKG1 (human)): 100%
- kinase still bound, per cent of control (CDK17 (human)): 100%
- kinase still bound, per cent of control (MAPK1 (human)): 22%
- kinase still bound, per cent of control (CDKL2 (human)): 100%
- kinase still bound, per cent of control (PRKD1 (human)): 100%
- kinase still bound, per cent of control (ERBB2 (human)): 100%
- kinase still bound, per cent of control (EPHA3 (human)): 100%
- kinase still bound, per cent of control (RET (human)): 3.8%
- kinase still bound, per cent of control (DCLK1 (human)): 100%
- kinase still bound, per cent of control (SRC (human)): 0.25%
- kinase still bound, per cent of control (MAPK9 (human)): 100%
- kinase still bound, per cent of control (AAK1 (human)): 11%
- kinase still bound, per cent of control [2]: 100%
- kinase still bound, per cent of control (CDK8 (human)): 100%
- kinase still bound, per cent of control (NEK6 (human)): 100%
- kinase still bound, per cent of control [3]: 1.4%
- kinase still bound, per cent of control (LYN (human)): 22%
- kinase still bound, per cent of control (TSSK1B (human)): 100%
- kinase still bound, per cent of control (PAK7 (human)): 100%
